The values that follow come from patent publication US9238030B2, “Methods for treatment of diseases and disorders related to transducin β-like protein 1 (TBL1) activity, including myeloproliferative neoplasia and chronic myeloid leukemia” (Beta Cat Pharmaceuticals, LLC, priority 2011, dated 2016).

Assay [1] relates to β-catenin. Kind of assay: Western blot, proteasomal degradation of β-catenin in AML cells (FIG. 6C). The format is cell-based. How it is done: As one can see, there is less of β-catenin in the AML cells treated with 100 nM of Compound 1 for 8 hours as compared to non-treated AML cells. However, when 10 nM of Carfilzomib (CZ) (a proteasome inhibitor) were administered to the same AML cells, the amount of β-catenin increased.
In general terms: Immunoblotting shows a protein as a band on a membrane.

In assay [2] the test system is β-catenin. Kind of assay: β-catenin expression and nuclear localization, staining with anti-β-catenin antibody and DAPI. The format is cell-based. The conditions noted are these: CD34+ Primary FLT3-ITD AML cells, 100 nM, 16 hours. From the text:
Briefly, CD34+ Primary AML cells, CD34+ Primary FLT3-ITD AML cells and CD34+ Normal cells were stained with anti-β-catenin antibody and DAPI nucleic acid stain. The photographs of these stains were also merged. The photographs of the stained cells are contained in FIG. 5A. As these photographs show, there is a lot of β-catenin expressed in both types of AML cells, and β-catenin is concentrated in nuclei of these cells.
As one can see, compared to control cells (i.e., not treated with Compound 1), this treatment leads to depletion of β-catenin expression and nuclear localization in AML cells.

Another assay concerns CD34+ MPN cells. Kind of assay: Apoptosis of primary MPN cells isolated from patients. Format: cell-based. The procedure:
Briefly, the CD34+ cells isolated from bone marrow of MPN patients, were seeded in medium containing 10% FBS and penicillin/streptomycin. After 24 hours, the cells were treated with Compound 1 for 48 hours or Compound 1 in combination with TG101209. At the end of treatment, cells were washed with 1×PBS and stained with annexin V and TOPRO3 iodide. The percentages of apoptotic cells were determined by flow cytometry. Combination index (CI) was determined using the method of Chou-Talalay (Adv. Enzyme Regul. 22, 27-55).

Assay [3] concerns β-catenin. Kind of assay: Western blot of AML cells (FIG. 5C). The conditions noted are these: 100 nM. Format: cell-based.
Assay [4] relates to CD34+ CD38-Lin-Primary AML cells. The assay can be described thus: % of non-viable cells, in vitro apoptosis. Format: cell-based. Conditions: various amounts.
In assay [5] the test system is TCF reporter plasmid (TOP-FLASH). Kind of assay: TOP-FLASH and FOP-FLASH luciferase activity in AML cells. The format is cell-based. Conditions: 20 nM, 50 nM, and 100 nM. From the text:
FIG. 7A depicts a bar chart of TOP-FLASH and FOP-FLASH luciferase activity versus treatment of AML cells with different amounts of Compound 1.
TOP-FLASH is a Transfection grade T-cell factor (TCF) reporter plasmid containing two sets (with the second set in the reverse orientation) of three copies of the TCF binding site (wild type) upstream of the Thymidine Kinase (TK) minimal promoter and Luciferase open reading frame.
FOP-FLASH is a reporter plasmid containing mutated TCF binding sites is a negative control.
There was no reduction in FOP-FLASH (negative control).

Assay [6] concerns CD34+ Primary FLT3-ITD AML cells. The assay can be described thus: % of non-viable cells, in vitro apoptosis. The conditions noted are these: various amounts. Format: cell-based.
The subject of assay [7] is β-catenin at target gene promoters. The assay can be described thus: chIP (Chromatin immunoprecipitation) analysis in AML cells. Format: cell-based. The conditions noted are these: 200 nM, 8 hours. From the text: FIG. 7B contains the bar chart of the results of chIP (Chromatin immunoprecipitation) analysis of the effect of treating AML cells with Compound 1.
Assay [8] deals with CD34+ Primary FLT3-WT AML cells. Kind of assay: % of non-viable cells, in vitro apoptosis. The format is cell-based. The conditions noted are these: various amounts.
For assay [9], the target named is T1, binding of β-catenin to TBL1 (Homo sapiens, UniProt O60907).
T1 construct: endogenous in cells; host or cells: AML cells
T1 sequence (O60907 1-577): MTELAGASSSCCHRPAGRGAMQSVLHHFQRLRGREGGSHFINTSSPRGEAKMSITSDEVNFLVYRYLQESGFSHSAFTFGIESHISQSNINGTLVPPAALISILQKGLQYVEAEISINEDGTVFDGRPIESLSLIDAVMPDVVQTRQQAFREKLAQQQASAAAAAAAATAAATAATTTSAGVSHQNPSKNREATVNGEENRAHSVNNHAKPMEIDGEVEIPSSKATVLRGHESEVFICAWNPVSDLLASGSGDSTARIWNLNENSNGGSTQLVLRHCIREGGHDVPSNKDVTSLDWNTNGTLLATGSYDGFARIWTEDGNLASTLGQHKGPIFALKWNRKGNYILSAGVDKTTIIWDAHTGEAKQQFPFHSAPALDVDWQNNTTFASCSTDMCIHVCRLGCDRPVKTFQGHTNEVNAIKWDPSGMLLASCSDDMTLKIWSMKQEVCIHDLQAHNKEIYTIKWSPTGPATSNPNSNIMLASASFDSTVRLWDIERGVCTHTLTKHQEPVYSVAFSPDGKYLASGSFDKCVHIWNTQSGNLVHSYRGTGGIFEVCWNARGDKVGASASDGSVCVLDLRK
The assay can be described thus: Staining of AML cells with anti-β-catenin antibody, anti-TBL1 antibody and DAPI (FIG. 6B). Format: cell-based. Conditions: 100 nM, 16 hours. The procedure: FIG. 6B is a series of photographs of stained AML cells with and without prior administration of Compound 1. The top panel depicts control cells (without prior administration of Compound 1) and the bottom panel depicts AML cells following administration of 100 nM of Compound 1 for 16 hours. The cells were stained with the anti-β-catenin antibody, anti-TBL1 antibody, and DAPI nucleic acid stain. The photographs of TBL1 and anti-beta-catenin stains were also merged. […] Compare especially the top right photograph and the bottom right photograph.

Assay [10] deals with primary FLT3-ITD AML xenograft. Kind of assay: Survival of NSG mice with primary FLT3-ITD AML xenograft. Conditions: 10 mg/kg, three weeks, twice per week intravenous infusion. Format: in vivo. From the text:
Very similar results were obtained in NSG mice with primary FLT3-ITD AML xenograft.

Assay [11] has as its system HEL 92.1.7 cells. The assay can be described thus: Mouse model of human MPN, survival. Format: in vivo, NOD-SCID mice. Conditions: 15 or 20 mg/Kg b.i.w for three weeks via the tail vein; p<001. How it is done: Briefly, NOD-SCID mice were sub-lethally irradiated and HEL 92.1.7 cells were infused into the tail vein and MPN established. Mice were treated with 15 or 20 mg/Kg of Compound 1 administered b.i.w for three weeks via the tail vein. Animals were followed for survival after dosing stopped.

Assay [12] deals with β-catenin, c-MYC, Cyclin D1 and p21. The assay can be described thus: Levels of β-catenin, c-MYC, Cyclin D1 and p21 in AML cells (FIG. 7C). The format is cell-based. Conditions: 100 nM. The procedure: FIG. 7C contains the bar chart of the effect of administering 100 nM of Compound 1 to AML cells on levels of β-catenin, c-MYC, Cyclin D1 and p21 (control).
The next assay concerns UKE1 cells. The assay can be described thus: Apoptosis of MPN cells, annexin V / TOPRO3 flow cytometry. The format is cell-based. The procedure: (§1) Briefly, the cell lines HEL 92.1.7 (FIGS. 1A and 1C) and UKE1 (FIGS. 1B and 1D) were seeded in medium containing 10% FBS and penicillin/streptomycin. After 24 hours, the cells were treated with either: 1) Compound 1; or 2) Compound 1 in combination with TG101209 for 48 hours. At the end of treatment, cells were washed with 1×PBS and stained with annexin V and TOPRO3 iodide. The percentages of apoptotic cells were determined by flow cytometry.

The test system of assay [13] is HEL 92.1.7 cells. The assay is described as above. Format: cell-based. The procedure: as §1
For assay [14], the system named is β-catenin. Kind of assay: Western blot of primary AML cells (FIG. 6A). Format: cell-based. Conditions: 100 nM, 8 hours.
The test system of a further assay is OCI-AML3 xenograft cells. Kind of assay: Survival of NSG mice with established AML by OCI-AML3 xenograft. The format is in vivo. Conditions: three weeks, twice per week tail vein infusion.
The test system of a further assay is K562 cells. Kind of assay: Apoptosis of CML cells, annexin V / TOPRO3 flow cytometry. The format is cell-based, human. How it is done:
(§2) Briefly, cell lines K562 (human immortalized myelogenous leukemia line) and LAMA-84 (a human leucocytic cell line) were seeded in medium containing 10% FBS and penicillin/streptomycin. After 24 hours, the cells were treated with Compound 1 for 48 hours. At the end of the treatment, the cells were washed with 1×PBS and stained with annexin V and TOPRO3 iodide. The percentages of apoptotic cells were determined by flow cytometry.
(§3) Briefly, the cell lines K562 and LAMA-84, were seeded in medium containing 10% FBS and penicillin/streptomycin. After 24 hours, the cells were treated with either: 1) Compound 1 alone; or 2) in combination with panobinostat and nilotinib for 48 hours. At the end of treatment, cells were washed with 1×PBS and stained with annexin V and TOPRO3 iodide. The percentages of apoptotic cells were determined by flow cytometry.

Another assay concerns LAMA-84 cells. The description is as above. The format is cell-based, human. How it is done: as §2, §3
Where [15] appears, read: in combination with Compound 1, 48 hours.

Regarding `CC(C)C[C@H](NC(=O)[C@H](CCc1ccccc1)NC(=O)CN1CCOCC1)C(=O)N[C@@H](Cc1ccccc1)C(=O)N[C@@H](CC(C)C)C(=O)[C@@]1(C)CO1` [Carfilzomib, reference compound], in the assay with β-catenin [1] (10 nM Carfilzomib administered to the same AML cells treated with Compound 1), the “amount of β-catenin” value is given as “increased”.
As to `C[C@@H]1C[C@H](C)CN(S(=O)(=O)c2ccc3c(c2)C(=NO)c2cc(S(=O)(=O)N4C[C@H](C)C[C@H](C)C4)ccc2C3=NO)C1` [Compound 1], the “β-catenin expression and nuclear localization” value with β-catenin [2] is “depletion”. In addition, the “apoptosis of CD34+ MPN cells” value in the assay with CD34+ MPN cells (100 nM or above, 48 hours) is listed as “induced apoptosis”. In the assay with β-catenin [3], the “Survivin level, Western blot” value was “about the same levels”; the “TBL1 level, Western blot” value is “about the same levels”; the “c-MYC level, Western blot” value is given as “about the same levels”; the “β-actin level, Western blot” value is reported as “about the same levels”. Further, in the assay with β-catenin [3], the “β-catenin expression, Western blot” value is on record as “less”. Moreover, in [4], the “in vitro apoptosis (% of non-viable cells)” value was “significantly induced in vitro apoptosis”. Further, in assay [5], the “FOP-FLASH luciferase activity (negative control)” value is recorded as “no reduction” and the “TOP-FLASH luciferase activity (expression of β-catenin as measured by this luciferase assay)” value is given as “much lower expression”. Also, the “in vitro apoptosis (% of non-viable cells)” value in assay [6] was “significantly induced in vitro apoptosis”. For the same compound, in assay [7], the “amount of promoter DNA of CCND1, chIP” value is on record as “reduced amount”; the “amount of promoter DNA of c-MYC, chIP” value was “reduced amount”; the “amount of promoter DNA of survivin, chIP” value is on record as “reduced amount”. Also, in the assay with β-catenin [1] (AML cells), the “fate of β-catenin” value is listed as “proteasomal degradation”. Further, the “β-catenin compared to non-treated AML cells, Western blot” value in the assay with β-catenin [1] (AML cells, 100 nM, 8 hours) is “less”. For the same compound, the “in vitro apoptosis (% of non-viable cells)” value in assay [8] is reported as “significantly induced in vitro apoptosis”. Besides, in assay [9], the “binding of β-catenin to TBL1, staining” value is reported as “severely disrupted” and the “levels of β-catenin, staining” value is given as “depleted”. Besides, the “% survival compared to the control mice” value in assay [10] is listed as “dramatic increase”. For the same compound, the “survival compared to the control” value in the assay with HEL 92.1.7 cells [11] is recorded as “significantly improved survival”. Also, in assay [12], the “expression of Cyclin D1” value is on record as “lower expression”, the “expression of c-MYC” value is “lower expression”, the “expression of p21” value is “much higher expression” and the “expression of β-catenin” value is reported as “lower expression”. The “apoptosis of UKE1 cells” value in the assay on UKE1 cells (Compound 1 alone, 48 hours) is given as “induced apoptosis”. The “apoptosis of HEL 92.1.7 cells” value with HEL 92.1.7 cells [13] (Compound 1 alone, 48 hours) is recorded as “induced apoptosis”. In addition, the “β-catenin, Western blot” value in the assay on β-catenin [14] is recorded as “less”. Besides, in the assay on OCI-AML3 xenograft cells (5 mg/kg), the “survival compared to the control mice” value is given as “improved survival”. Also, the “survival compared to the control mice” value in the assay on OCI-AML3 xenograft cells (10 mg/kg) is “improved survival”. In the assay with K562 cells (K562, 48 hours), the “effect at S or G2/M phases of the cell cycle” value is listed as “did not have significant effect” and the “number of apoptotic cells at G0/G1 phase of the cell cycle” value is “increased”. Further, the “number of apoptotic cells” value with K562 cells (K562, Compound 1 alone, 48 hours) was “increased”. Besides, in the assay with LAMA-84 cells (LAMA-84, 48 hours), the “effect at S or G2/M phases of the cell cycle” value was “did not have significant effect” and the “number of apoptotic cells at G0/G1 phase of the cell cycle” value was “increased”. The “number of apoptotic cells” value in the assay on LAMA-84 cells (LAMA-84, Compound 1 alone, 48 hours) was “increased”.
Regarding `Cc1cnc(Nc2ccc(N3CCN(C)CC3)cc2)nc1Nc1cccc(S(=O)(=O)NC(C)(C)C)c1` [TG101209, N-tert-butyl-3-[[5-methyl-2-[4-(4-methylpiperazin-1-yl)anilino]pyrimidin-4-yl]amino]benzenesulfonamide, reference compound], the “effect on apoptosis induced by Compound 1, CD34+ MPN cells” value in the assay on CD34+ MPN cells (in combination with Compound 1) was “enhanced”. For the same compound, the “effect on apoptosis induced by Compound 1, UKE1 cells” value with UKE1 cells (setting [15]) is “enhanced”. Also, the “effect on apoptosis induced by Compound 1, HEL 92.1.7 cells” value with HEL 92.1.7 cells [13] (setting [15]) is “enhanced”.
Turning to `Cc1cn(-c2cc(NC(=O)c3ccc(C)c(Nc4nccc(-c5cccnc5)n4)c3)cc(C(F)(F)F)c2)cn1` [nilotinib, reference compound], the “effect on apoptosis induced by Compound 1” value is given as “enhanced” with K562 cells (K562, in combination with Compound 1, 48 hours) and “enhanced” in the assay on LAMA-84 cells (LAMA-84, in combination with Compound 1, 48 hours).
